Measurements reported in ChEMBL document CHEMBL3272279, “Synthesis of 5-chloro-3'-nitro-4'-substituted salicylanilides, a new series of anthelmintic and antimicrobial agents” (1977).
In brackets after ≈: the same amount, converted by molar mass. Activity calls are given as the source filed them. No cut-off for these calls is given here.

Columns and labels:
Rodentolepis nana [1] = assay: Cestodicidal activity against Hymenolepis nana infected in po dosed rat administered as single dose; assay type: functional
Staphylococcus aureus = assay: Antimicrobial activity against penicillin-resistant Staphylococcus aureus assessed as growth inhibition after 24 hrs by two-fold serial dilution technique; assay type: functional
[2] = test system: Agrobacterium tumefaciens; assay: Antimicrobial activity against Agrobacterium tumefaciens assessed as growth inhibition after 24 hrs by two-fold serial dilution technique; assay type: functional
Cryptococcus neoformans = assay: Antimicrobial activity against Cryptococcus neoformans assessed as growth inhibition after 24 hrs by two-fold serial dilution technique; assay type: functional
[3] = test system: Trichophyton mentagrophytes; assay: Antimicrobial activity against Trichophyton mentagrophytes assessed as growth inhibition after 24 hrs by two-fold serial dilution technique; assay type: functional
Microsporum canis = assay: Antimicrobial activity against Microsporum canis assessed as growth inhibition after 24 hrs by two-fold serial dilution technique; assay type: functional
Aspergillus niger = assay: Antimicrobial activity against Aspergillus niger assessed as growth inhibition after 24 hrs by two-fold serial dilution technique; assay type: functional
Salmonella typhi = assay: Antimicrobial activity against Salmonella typhi assessed as growth inhibition after 24 hrs by two-fold serial dilution technique; assay type: functional, organism-based; details: Salmonella enterica subsp. enterica serovar Typhi
Escherichia coli [4] = assay: Antimicrobial activity against Escherichia coli assessed as growth inhibition after 24 hrs by two-fold serial dilution technique; assay type: functional, organism-based
Bacillus subtilis = assay: Antimicrobial activity against Bacillus subtilis assessed as growth inhibition after 24 hrs by two-fold serial dilution technique; assay type: functional, organism-based
Candida albicans [5] = assay: Antimicrobial activity against Candida albicans assessed as growth inhibition after 24 hrs by two-fold serial dilution technique; assay type: functional
Rodentolepis nana [6] = assay: Cestodicidal activity against Hymenolepis nana infected in rat at 250 mg/kg, po administered as single dose; assay type: functional, organism-based; parameters: dose 250 mg/kg
Candida albicans [7] = assay: Antimicrobial activity against Candida albicans assessed as growth inhibition at 0.39 ug/ml after 24 hrs by two-fold serial dilution technique; assay type: functional, organism-based
Escherichia coli [8] = assay: Antimicrobial activity against Escherichia coli assessed as growth inhibition at 0.78 ug/ml after 24 hrs by two-fold serial dilution technique; assay type: functional, organism-based

SMILES	MED98 (Rodentolepis nana [1]) [mg/kg]	MIC (Staphylococcus aureus) [µg/mL]	MIC [2] [µg/mL]	MIC (Cryptococcus neoformans) [µg/mL]	MIC [3] [µg/mL]	MIC (Microsporum canis) [µg/mL]	MIC (Aspergillus niger) [µg/mL]	growth inhibition (GI) (Salmonella typhi)	growth inhibition (GI) (Escherichia coli [4])	growth inhibition (GI) (Bacillus subtilis)	growth inhibition (GI) (Candida albicans [5])	Activity (Rodentolepis nana [6])	MIC (Candida albicans [5]) [µg/mL]	growth inhibition (GI) (Candida albicans [7])	growth inhibition (GI) (Escherichia coli [8])
O=C(Nc1ccc(N2CCC(c3ccccc3)CC2)c([N+](=O)[O-])c1)c1cc(Cl)ccc1O	250	0.39 (≈ 0.863 µM)	25 (≈ 55.3 µM)	3.12 (≈ 6.92 µM)	6.25 (≈ 13.8 µM)	6.25 (≈ 13.8 µM)	> 100	inactive	inactive	inactive	inactive				
O=C(Nc1ccc(N2CCCC2)c([N+](=O)[O-])c1)c1cc(Cl)ccc1O		0.0975 (≈ 0.269 µM)	> 100	25 (≈ 69.1 µM)	> 100	> 100	25 (≈ 69.1 µM)	inactive	inactive	inactive		inactive	25 (≈ 69.1 µM)		
CCC1CCCCN1c1ccc(NC(=O)c2cc(Cl)ccc2O)cc1[N+](=O)[O-] (stereo not given)	100	0.39 (≈ 0.966 µM)	> 100	25 (≈ 61.9 µM)	6.25 (≈ 15.5 µM)	6.25 (≈ 15.5 µM)	> 100	inactive	inactive	inactive	inactive				
C[C@@H]1[C@H](O)[C@@H](C)/C=C/C=C/C=C/C=C/C=C/C=C/C=C/[C@H](O[C@@H]2O[C@H](C)[C@@H](O)[C@H](N)[C@@H]2O)C[C@@H]2O[C@](O)(C[C@@H](O)C[C@@H](O)[C@H](O)CC[C@@H](O)C[C@@H](O)CC(=O)O[C@H]1C)C[C@H](O)[C@H]2C(=O)O [AMPHOTERICIN B]				0.78 (≈ 0.844 µM)	1.56 (≈ 1.69 µM)	1.56 (≈ 1.69 µM)	12.5 (≈ 13.5 µM)							Active	
O=C(Nc1ccc([N+](=O)[O-])cc1Cl)c1cc(Cl)ccc1O [NICLOSAMIDE]	50														
CCOc1ccc(NC(=O)c2cc(Cl)ccc2O)cc1[N+](=O)[O-]		> 100	> 100	> 100	> 100	> 100	> 100	inactive	inactive	inactive	inactive	inactive			
O=C(Nc1ccc(N2CCN(c3ccccc3)CC2)c([N+](=O)[O-])c1)c1cc(Cl)ccc1O	50	0.39 (≈ 0.861 µM)	> 100	12.5 (≈ 27.6 µM)	3.12 (≈ 6.9 µM)	1.56 (≈ 3.44 µM)	25 (≈ 55.2 µM)	inactive	inactive	inactive	inactive				
CCCCN(CCCC)c1ccc(NC(=O)c2cc(Cl)ccc2O)cc1[N+](=O)[O-]		> 100	> 100	> 100	> 100	25 (≈ 59.5 µM)	25 (≈ 59.5 µM)	inactive	inactive	inactive	inactive	inactive			
Cc1cccc(Oc2ccc(NC(=O)c3cc(Cl)ccc3O)cc2[N+](=O)[O-])c1		0.195 (≈ 0.489 µM)	> 100	> 100	1.56 (≈ 3.91 µM)	0.78 (≈ 1.96 µM)	> 100	inactive	inactive	inactive	inactive	inactive			
O=C(Nc1ccc(N2CCC(O)(c3ccccc3)CC2)c([N+](=O)[O-])c1)c1cc(Cl)ccc1O	250	0.39 (≈ 0.833 µM)	25 (≈ 53.4 µM)	3.12 (≈ 6.68 µM)	6.25 (≈ 13.4 µM)	6.25 (≈ 13.4 µM)	> 100	inactive	inactive	inactive	inactive				
O=C(Nc1ccc(Oc2ccc(Cl)cc2)c([N+](=O)[O-])c1)c1cc(Cl)ccc1O		0.78 (≈ 1.86 µM)	25 (≈ 59.6 µM)	> 100	1.56 (≈ 3.72 µM)	0.78 (≈ 1.86 µM)	25 (≈ 59.6 µM)	inactive	inactive	inactive	inactive	inactive			
CC1CCN(c2ccc(NC(=O)c3cc(Cl)ccc3O)cc2[N+](=O)[O-])CC1	250	0.0975 (≈ 0.25 µM)	25 (≈ 64.1 µM)	3.12 (≈ 8.02 µM)	> 100	> 100	> 100	inactive	inactive	inactive	inactive				
O=C(Nc1ccc(N2CCCCC2)c([N+](=O)[O-])c1)c1cc(Cl)ccc1O	250	0.195 (≈ 0.519 µM)	12.5 (≈ 33.3 µM)	1.56 (≈ 4.15 µM)	> 100	> 100	12.5 (≈ 33.3 µM)	inactive	inactive	inactive			25 (≈ 66.5 µM)		
CC1CCCCN1c1ccc(NC(=O)c2cc(Cl)ccc2O)cc1[N+](=O)[O-] (stereo not given)	50	0.0975 (≈ 0.25 µM)	> 100	> 100	12.5 (≈ 32.1 µM)	6.25 (≈ 16 µM)	> 100	inactive	inactive	inactive	inactive				
CN1CCN(c2ccc(NC(=O)c3cc(Cl)ccc3O)cc2[N+](=O)[O-])CC1	100	0.195 (≈ 0.499 µM)	25 (≈ 64 µM)	25 (≈ 64 µM)	0.195 (≈ 0.499 µM)	0.39 (≈ 0.998 µM)	25 (≈ 64 µM)	inactive	inactive	inactive			25 (≈ 64 µM)		
O=C(Nc1ccc(N2CCCCCC2)c([N+](=O)[O-])c1)c1cc(Cl)ccc1O	50	0.0975 (≈ 0.25 µM)	> 100	> 100	25 (≈ 64.1 µM)	25 (≈ 64.1 µM)	> 100	inactive	inactive	inactive	inactive				
O=C(Nc1ccc(Oc2ccccc2)c([N+](=O)[O-])c1)c1cc(Cl)ccc1O	250	0.00609 (≈ 0.0158 µM)	> 100	> 100	1.56 (≈ 4.05 µM)	0.78 (≈ 2.03 µM)	25 (≈ 65 µM)	inactive	inactive	inactive	inactive				
Cc1ccc(Oc2ccc(NC(=O)c3cc(Cl)ccc3O)cc2[N+](=O)[O-])cc1		0.39 (≈ 0.978 µM)	> 100	> 100	1.56 (≈ 3.91 µM)	0.78 (≈ 1.96 µM)	6.25 (≈ 15.7 µM)	inactive	inactive	inactive	inactive	inactive			
O=C(Nc1ccc(NC2CCCCC2)c([N+](=O)[O-])c1)c1cc(Cl)ccc1O	30	0.0975 (≈ 0.25 µM)	> 100	25 (≈ 64.1 µM)	3.12 (≈ 8.02 µM)	3.12 (≈ 8.02 µM)	25 (≈ 64.1 µM)	inactive	inactive	inactive	inactive				
O=C(Nc1ccc(Br)cc1)c1cc(Br)cc(Br)c1O [TRIBROMSALAN]		0.0975 (≈ 0.217 µM)	12.5 (≈ 27.8 µM)	6.25 (≈ 13.9 µM)	1.56 (≈ 3.47 µM)	0.78 (≈ 1.73 µM)	12.5 (≈ 27.8 µM)	inactive	inactive	inactive					
CC1CCCN(c2ccc(NC(=O)c3cc(Cl)ccc3O)cc2[N+](=O)[O-])C1 (stereo not given)	250	0.39 (≈ 1 µM)	> 100	25 (≈ 64.1 µM)	6.25 (≈ 16 µM)	3.12 (≈ 8.02 µM)	> 100	inactive	inactive	inactive	inactive				
CN(C)[C@@H]1C(O)=C(C(N)=O)C(=O)[C@@]2(O)C(O)=C3C(=O)c4c(O)cccc4[C@@](C)(O)[C@H]3C[C@@H]12 [TETRACYCLINE]			0.78 (≈ 1.76 µM)												Active
